IC50 data for 25 compounds are collected here from US11208400B2, “Substituted 6-(1H-pyrazol-1-yl)pyrimidin-4-amine derivatives and uses thereof” (Bayer Aktiengesellschaft, priority 2016, dated 2021).

The assay has as its target T1, human Npt2a (Homo sapiens, UniProt Q06495).
T1 construct: expressed in transfected cells
T1 sequence (Q06495 1-639): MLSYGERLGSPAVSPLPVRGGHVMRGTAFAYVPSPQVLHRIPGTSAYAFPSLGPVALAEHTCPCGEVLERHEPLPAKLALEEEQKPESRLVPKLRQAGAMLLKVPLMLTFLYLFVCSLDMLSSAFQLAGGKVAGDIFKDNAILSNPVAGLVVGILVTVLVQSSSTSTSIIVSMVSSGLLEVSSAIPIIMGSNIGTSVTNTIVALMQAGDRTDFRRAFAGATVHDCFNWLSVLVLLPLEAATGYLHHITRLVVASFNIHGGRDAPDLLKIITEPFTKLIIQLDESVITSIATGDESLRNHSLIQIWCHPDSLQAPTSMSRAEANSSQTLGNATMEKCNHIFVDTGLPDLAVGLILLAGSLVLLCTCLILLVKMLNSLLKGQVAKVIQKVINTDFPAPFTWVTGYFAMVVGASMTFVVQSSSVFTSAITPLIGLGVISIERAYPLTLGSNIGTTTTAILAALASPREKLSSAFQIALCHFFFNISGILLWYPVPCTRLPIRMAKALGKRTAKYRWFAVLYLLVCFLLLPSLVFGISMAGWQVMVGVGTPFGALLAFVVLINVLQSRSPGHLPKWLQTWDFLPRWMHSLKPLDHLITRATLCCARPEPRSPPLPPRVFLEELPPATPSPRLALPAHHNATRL
Briefly: Npt2a activity cell based assay, membrane potential dye, CHO T-REx hNpt2a cells. Conditions: doxycycline-induced, depolarization by sodium phosphate influx, average or median values if tested more than once. Summed up:
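Doxycycline-induced (0.5 μg/mL, 24 h) CHO T-REx cells were loaded with membrane potential dye in sodium-free NHE buffer (pH 7.4) and exposed to compound (50 μM–1 nM, 5 min, room temperature).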
In the case of `Cc1nn(-c2cc(Nc3c(C)c(-c4ccc(C(F)F)nc4)nn3CC3CC3)ncn2)c(C)c1C#N` [Example 512, 1-[6-({1-(cyclopropylmethyl)-3-[6-(difluoromethyl)pyridin-3-yl]-4-methyl-1H-pyrazol-5-yl}amino)pyrimidin-4-yl]-3,5-dimethyl-1H-pyrazole-4-carbonitrile], the IC50 amounted to 1400 nM. The same measure for `Cc1nn(-c2cc(Nc3c(C)c(C45C6C7C4C4C5C6C74C#N)nn3CC3CC3)ncn2)c(C)c1Cl` (stereo not shown) [Example 513, 4-[5-{[6-(4-chloro-3,5-dimethyl-1H-pyrazol-1-yl)pyrimidin-4-yl]amino}-1-(cyclopropylmethyl)-4-methyl-1H-pyrazol-3-yl]cubane-1-carbonitrile]: 7 nM; for `COc1c(C)nn(-c2cc(Nc3c(C)c(C45C6C7C4C4C5C6C74C#N)nn3CC3CC3)ncn2)c1C` (stereo not shown) [Example 514, 4-[1-(cyclopropylmethyl)-5-{[6-(4-methoxy-3,5-dimethyl-1H-pyrazol-1-yl)pyrimidin-4-yl]amino}-4-methyl-1H-pyrazol-3-yl]cubane-1-carbonitrile]: 9 nM. The value for `Cc1nn(-c2cc(Nc3c(C)c(-c4ccc(F)cc4)nn3CC3CC3)ncn2)c(C)c1C1(C(F)(F)F)OCCO1` [Example 517, N-[1-(cyclopropylmethyl)-3-(4-fluorophenyl)-4-methyl-1H-pyrazol-5-yl]-6-{3,5-dimethyl-4-[2-(trifluoromethyl)-1,3-dioxolan-2-yl]-1H-pyrazol-1-yl}pyrimidin-4-amine] was 29 nM.

On to `COC(=O)Oc1c(C)nn(-c2cc(Nc3c(C)c(-c4ccc(F)cc4)nn3CC3CC3)ncn2)c1C` [Example 518, 1-(6-{[1-(cyclopropylmethyl)-3-(4-fluorophenyl)-4-methyl-1H-pyrazol-5-yl]amino}pyrimidin-4-yl)-3,5-dimethyl-1H-pyrazol-4-yl methyl carbonate], for which the IC50 was 14 nM. The same measure for `CNC(=O)Oc1c(C)nn(-c2cc(Nc3c(C)c(-c4ccc(F)cc4)nn3CC3CC3)ncn2)c1C` [Example 519, 1-(6-{[1-(cyclopropylmethyl)-3-(4-fluorophenyl)-4-methyl-1H-pyrazol-5-yl]amino}pyrimidin-4-yl)-3,5-dimethyl-1H-pyrazol-4-yl methylcarbamate]: 230 nM. The compound `Cc1nn(-c2cc(Nc3c(C)c(-c4ccc(F)cc4)nn3CC3CC3)ncn2)c(C)c1OC(=O)N(C)C` [Example 520, 1-(6-{[1-(cyclopropylmethyl)-3-(4-fluorophenyl)-4-methyl-1H-pyrazol-5-yl]amino}pyrimidin-4-yl)-3,5-dimethyl-1H-pyrazol-4-yl dimethylcarbamate] displayed an IC50 of 1600 nM. The value for `CNc1ccc(-c2nn(CCOC)c(Nc3cc(-n4nc(C)c(Cl)c4C)ncn3)c2C)cc1` [Example 521, 6-(4-chloro-3,5-dimethyl-1H-pyrazol-1-yl)-N-{1-(2-methoxyethyl)-4-methyl-3-[4-(methylamino)phenyl]-1H-pyrazol-5-yl}pyrimidin-4-amine] was 8 nM. The value for `CCCN1Cc2cnn(-c3cc(Nc4c(C)c(-c5ccc(F)cc5)nn4CC4CC4)ncn3)c2C1` [Example 522, N-[1-(cyclopropylmethyl)-3-(4-fluorophenyl)-4-methyl-1H-pyrazol-5-yl]-6-(5-propyl-5,6-dihydropyrrolo[3,4-c]pyrazol-1(4H)-yl)pyrimidin-4-amine] was 910 nM; that for `CCCN1Cc2cn(-c3cc(Nc4c(C)c(-c5ccc(F)cc5)nn4CC4CC4)ncn3)nc2C1` [Example 523, N-[1-(cyclopropylmethyl)-3-(4-fluorophenyl)-4-methyl-1H-pyrazol-5-yl]-6-(5-propyl-5,6-dihydropyrrolo[3,4-c]pyrazol-2(4H)-yl)pyrimidin-4-amine] was 690 nM; that for `COCCn1nc(-c2ccc(F)cc2)c(C)c1Nc1cc(-n2nc(C)c(C(F)(F)F)c2C)ncn1` [Example 524, 6-[3,5-dimethyl-4-(trifluoromethyl)-1H-pyrazol-1-yl]-N-[3-(4-fluorophenyl)-1-(2-methoxyethyl)-4-methyl-1H-pyrazol-5-yl]pyrimidin-4-amine] was 8 nM.

Compound `COCCn1nc(-c2ccc(F)cc2)c(C)c1Nc1cc(-n2nc(C)cc2C)ncn1` [Example 525, 6-(3,5-dimethyl-1H-pyrazol-1-yl)-N-[3-(4-fluorophenyl)-1-(2-methoxyethyl)-4-methyl-1H-pyrazol-5-yl]pyrimidin-4-amine] showed an IC50 of 4 nM. In the case of `COCCn1nc(-c2ccc(F)cc2)c(C)c1Nc1cc(-n2nc(C)c(OC)c2C)ncn1` [Example 526, N-[3-(4-fluorophenyl)-1-(2-methoxyethyl)-4-methyl-1H-pyrazol-5-yl]-6-(4-methoxy-3,5-dimethyl-1H-pyrazol-1-yl)pyrimidin-4-amine], half-maximal inhibition (IC50) required 17 nM. The value for `COCCn1nc(-c2ccc(F)cc2)c(C)c1Nc1cc(-n2nc(C)cc2C(F)F)ncn1` [Example 527, 6-[5-(difluoromethyl)-3-methyl-1H-pyrazol-1-yl]-N-[3-(4-fluorophenyl)-1-(2-methoxyethyl)-4-methyl-1H-pyrazol-5-yl]pyrimidin-4-amine] was 9 nM.

`CCOC(=O)c1c(C)nn(-c2cc(Nc3c(C)c(-c4ccc(F)cc4)nn3CCOC)ncn2)c1C` [Example 528, ethyl 1-(6-{[3-(4-fluorophenyl)-1-(2-methoxyethyl)-4-methyl-1H-pyrazol-5-yl]amino}pyrimidin-4-yl)-3,5-dimethyl-1H-pyrazole-4-carboxylate] came in with an IC50 of 4 nM. Regarding `Cc1ccc(-c2nn(CC3CC3)c(Nc3cc(-n4nc(C)cc4C)ncn3)c2C)cn1` [Example 529, N-[1-(cyclopropylmethyl)-4-methyl-3-(6-methylpyridin-3-yl)-1H-pyrazol-5-yl]-6-(3,5-dimethyl-1H-pyrazol-1-yl)pyrimidin-4-amine], the IC50 stood at 2700 nM. This IC50 is about 680-fold higher than that of the compound before. The same measure for `Cc1ccc(-c2nn(C)c(Nc3cc(-n4nc(C)c(C(F)(F)F)c4C)ncn3)c2C)cn1` [Example 530, N-[1,4-dimethyl-3-(6-methylpyridin-3-yl)-1H-pyrazol-5-yl]-6-[3,5-dimethyl-4-(trifluoromethyl)-1H-pyrazol-1-yl]pyrimidin-4-amine]: 33 nM; for `COc1c(Nc2cc(-n3nc(C)c(CC(C)(C)O)c3C)ncn2)nn(C)c1-c1ccc(C#N)cc1` [Example 531, 4-[3-({6-[4-(2-hydroxy-2-methylpropyl)-3,5-dimethyl-1H-pyrazol-1-yl]pyrimidin-4-yl}amino)-4-methoxy-1-methyl-1H-pyrazol-5-yl]benzonitrile]: 1500 nM; for `Cc1cc(C(F)F)n(-c2cc(Nc3c(C)c(-c4ccc(C(F)(F)F)nc4)nn3CC3CC3)ncn2)n1` [Example 532, N-{1-(cyclopropylmethyl)-4-methyl-3-[6-(trifluoromethyl)pyridin-3-yl]-1H-pyrazol-5-yl}-6-[5-(difluoromethyl)-3-methyl-1H-pyrazol-1-yl]pyrimidin-4-amine]: 2800 nM.

Take `Cc1cc(C)n(-c2cc(Nc3c(C)c(-c4ccc(C(F)(F)F)nc4)nn3CC3CC3)ncn2)n1` [Example 533, N-{1-(cyclopropylmethyl)-4-methyl-3-[6-(trifluoromethyl)pyridin-3-yl]-1H-pyrazol-5-yl}-6-(3,5-dimethyl-1H-pyrazol-1-yl)pyrimidin-4-amine]: the IC50 was found to be 2000 nM. The IC50 values of the last two compounds are within 1.5-fold of each other. The value for `Cc1nn(-c2cc(Nc3c(C)c(-c4ccc(C(F)(F)F)nc4)nn3CC3CC3)ncn2)c(C)c1Cl` [Example 534, 6-(4-chloro-3,5-dimethyl-1H-pyrazol-1-yl)-N-{1-(cyclopropylmethyl)-4-methyl-3-[6-(trifluoromethyl)pyridin-3-yl]-1H-pyrazol-5-yl}pyrimidin-4-amine] was 1500 nM; that for `COc1c(C)nn(-c2cc(Nc3c(C)c(-c4ccc(C(F)(F)F)nc4)nn3CC3CC3)ncn2)c1C` [Example 535, N-{1-(cyclopropylmethyl)-4-methyl-3-[6-(trifluoromethyl)pyridin-3-yl]-1H-pyrazol-5-yl}-6-(4-methoxy-3,5-dimethyl-1H-pyrazol-1-yl)pyrimidin-4-amine] was 26 nM. The value for `COCCn1nc(-c2ccc(C(F)F)cc2)c(C)c1Nc1cc(-n2nc(C)cc2C)ncn1` [Example 536, N-{3-[4-(difluoromethyl)phenyl]-1-(2-methoxyethyl)-4-methyl-1H-pyrazol-5-yl}-6-(3,5-dimethyl-1H-pyrazol-1-yl)pyrimidin-4-amine] was 17 nM; that for `COCCn1nc(-c2ccc(C(F)F)cc2)c(C)c1Nc1cc(-n2nc(C)c(Cl)c2C)ncn1` [Example 537, 6-(4-chloro-3,5-dimethyl-1H-pyrazol-1-yl)-N-{3-[4-(difluoromethyl)phenyl]-1-(2-methoxyethyl)-4-methyl-1H-pyrazol-5-yl}pyrimidin-4-amine] was 26 nM; that for `COCCn1nc(-c2ccc(C(F)F)cc2)c(C)c1Nc1cc(-n2nc(C)cc2C(F)F)ncn1` [Example 538, 6-[5-(difluoromethyl)-3-methyl-1H-pyrazol-1-yl]-N-{3-[4-(difluoromethyl)phenyl]-1-(2-methoxyethyl)-4-methyl-1H-pyrazol-5-yl}pyrimidin-4-amine] was 12 nM.

By IC50 is commonly meant the concentration that inhibits the measured activity by half. A high value points to weaker potency in that assay.
